Measurements as given in patent publication US20230167118A1, “DEGRADATION OF BRUTON'S TYROSINE KINASE (BTK) BY CONJUGATION OF BTK INIDBITORS WITH E3 LIGASE LIGAND AND METHODS OF USE” (BEIGENE, LTD., priority 2020, published 2023).

Tests used:
HEK-293 cells = assay: HEK-293 Cytotoxicity Assay (CellTiter-Glo); type: cell-based; conditions: Homo sapiens, HEK293, 72 h incubation, CellTiter-Glo luminescence
Method in brief: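 HEK-293 cells treated 72 h with 8 concentrations (4-fold dilutions, 0.2% DMSO final). Viability read by CellTiter-Glo luminescence; IC50 from four-parameter logistic fit of % inhibition.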

BTK = target: T1, BTK (Homo sapiens, UniProt Q06187); assay: Cell Degradation: BTK degradation in TMD-8 cells, HTRF assay; type: cell-based; conditions: 6 h treatment, IC50 (DC50) of BTK degradation
T1 construct: High control=Cell group with added DMSO and without compound, indicating microplate readings without BTK degradation; endogenous in cells; host or cells: TMD-8 cells
T1 sequence (Q06187 whole entry): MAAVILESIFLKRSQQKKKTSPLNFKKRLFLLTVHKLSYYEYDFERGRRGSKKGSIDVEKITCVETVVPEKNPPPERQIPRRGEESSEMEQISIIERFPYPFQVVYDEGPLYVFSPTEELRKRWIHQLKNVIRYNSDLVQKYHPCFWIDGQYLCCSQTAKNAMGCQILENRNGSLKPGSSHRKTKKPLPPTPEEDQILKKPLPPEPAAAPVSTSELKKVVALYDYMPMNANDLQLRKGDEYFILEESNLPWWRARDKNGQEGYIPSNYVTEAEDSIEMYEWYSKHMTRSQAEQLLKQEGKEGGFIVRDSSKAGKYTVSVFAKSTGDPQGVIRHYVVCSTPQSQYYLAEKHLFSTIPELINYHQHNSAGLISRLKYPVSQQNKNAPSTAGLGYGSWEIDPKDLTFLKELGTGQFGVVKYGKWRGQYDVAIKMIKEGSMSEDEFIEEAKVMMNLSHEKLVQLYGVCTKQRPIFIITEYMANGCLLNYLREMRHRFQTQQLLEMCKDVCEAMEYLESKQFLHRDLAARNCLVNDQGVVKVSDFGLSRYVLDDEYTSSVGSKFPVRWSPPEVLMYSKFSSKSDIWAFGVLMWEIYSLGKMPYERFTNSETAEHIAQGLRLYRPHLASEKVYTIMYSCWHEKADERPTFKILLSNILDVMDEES
Method in brief: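 TMD-8 cells treated 6 h with 8-dose 6-fold dilutions in 0.2% DMSO, then lysed and BTK quantified by HTRF (665/620 nm). Degradation % normalised to high/low controls; DC50 from four-parameter fit, Dmax as maximal degradation.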

Row | SMILES | IC50 (HEK-293 cells) [nM] | DC50 (BTK) [nM]
1 | CC(C)(C)c1noc(C(=O)N[C@@H]2CCc3cc(-c4ncnc5[nH]c(-c6ccc(N7CCN(CC8CCN(c9ccc(N%10CCC(=O)NC%10=O)cc9)CC8)CC7)cn6)cc45)ccc32)n1 [Example 150, (R)-3-(tert-butyl)-N-(5-(6-(5-(4-((1-(4-(2,4-dioxotetrahydropyrimidin-1(2H)-yl)phenyl)piperidin-4-yl)methyl)piperazin-1-yl)pyridin-2-yl)-7H-pyrrolo[2,3-d]pyrimidin-4-yl)-2,3-dihydro-1H-inden-1-yl)-1,2,4-oxadiazole-5-carboxamide] | > 10000 | 1.64
2 | CC(C)(C)c1noc(C(=O)N[C@@H]2CCc3cc(-c4ncnc5[nH]c(-c6ccc(N7CCN(CC8CCN(c9ccc(N%10CCC(=O)NC%10=O)cc9)CC8)CC7)nc6)cc45)ccc32)n1 [Example 151, (R)-3-(tert-butyl)-N-(5-(6-(6-(4-((1-(4-(2,4-dioxotetrahydropyrimidin-1(2H)-yl)phenyl)piperidin-4-yl)methyl)piperazin-1-yl)pyridin-3-yl)-7H-pyrrolo[2,3-d]pyrimidin-4-yl)-2,3-dihydro-1H-inden-1-yl)-1,2,4-oxadiazole-5-carboxamide] | > 10000 | 3.24
3 | Cc1cc(-c2ncnc3[nH]c(-n4nc(C)c(C5CCN(CC6CCN(c7ccc(N8CCC(=O)NC8=O)cc7)CC6)CC5)c4C)cc23)ccc1[C@@H](C)NC(=O)c1nc(C(C)(C)C)no1 [Example 152, (R)-3-(tert-butyl)-N-(1-(4-(6-(4-(1-((1-(4-(2,4-dioxotetrahydropyrimidin-1(2H)-yl)phenyl)piperidin-4-yl)methyl)piperidin-4-yl)-3,5-dimethyl-1H-pyrazol-1-yl)-7H-pyrrolo[2,3-d]pyrimidin-4-yl)-2-methylphenyl)ethyl)-1,2,4-oxadiazole-5-carboxamide] | 2460 | > 2000
4 | Cc1cc(-c2ncnc3[nH]c(-c4ccc(N5CCN(C6CC(c7ccc(C8CCC(=O)NC8=O)cc7)C6)CC5)cc4)cc23)ccc1[C@@H](C)NC(=O)c1nc(C(C)(C)C)no1 (stereo partly drawn) [Example 153, 3-(tert-butyl)-N-((1R)-1-(4-(6-(4-(4-(3-(4-(2,6-dioxopiperidin-3-yl)phenyl)cyclobutyl)piperazin-1-yl)phenyl)-7H-pyrrolo[2,3-d]pyrimidin-4-yl)-2-methylphenyl)ethyl)-1,2,4-oxadiazole-5-carboxamide] | 9580 | 2.02
5 | C[C@@H](NC(=O)c1nc(C(C)(C)C)no1)c1ccc(-c2ncnc3[nH]c(-c4ccc(N5CCN(CC6CCN(c7ccc(N8CCC(=O)NC8=O)cc7)CC6)CC5)cn4)cc23)cc1F [Example 154, (R)-3-(tert-butyl)-N-(1-(4-(6-(5-(4-((1-(4-(2,4-dioxotetrahydropyrimidin-1(2H)-yl)phenyl)piperidin-4-yl)methyl)piperazin-1-yl)pyridin-2-yl)-7H-pyrrolo[2,3-d]pyrimidin-4-yl)-2-fluorophenyl)ethyl)-1,2,4-oxadiazole-5-carboxamide] | > 10000 | 0.79
6 | CC(C)(C)c1nc(C(=O)N[C@@H]2CCc3cc(-c4ncnc5[nH]c(-c6ccc(N7CCN(CC8CCN(c9ccc(N%10CCC(=O)NC%10=O)cc9)CC8)CC7)cc6)cc45)ccc32)no1 [Example 156, (R)-5-(tert-butyl)-N-(5-(6-(4-(4-((1-(4-(2,4-dioxotetrahydropyrimidin-1(2H)-yl)phenyl)piperidin-4-yl)methyl)piperazin-1-yl)phenyl)-7H-pyrrolo[2,3-d]pyrimidin-4-yl)-2,3-dihydro-1H-inden-1-yl)-1,2,4-oxadiazole-3-carboxamide] | > 10000 | 2.43
7 | Cc1cc(-c2ncnc3[nH]c(-c4ccc(C5CN(CC6CCN(c7ccc(N8CCC(=O)NC8=O)cc7)CC6)C5)cc4)cc23)ccc1[C@@H](C)NC(=O)c1nc(C(C)(C)C)no1 [Example 157, (R)-3-(tert-butyl)-N-(1-(4-(6-(4-(1-((1-(4-(2,4-dioxotetrahydropyrimidin-1(2H)-yl)phenyl)piperidin-4-yl)methyl)azetidin-3-yl)phenyl)-7H-pyrrolo[2,3-d]pyrimidin-4-yl)-2-methylphenyl)ethyl)-1,2,4-oxadiazole-5-carboxamide] | > 10000 | 1.04
8 | Cc1cc(-c2ncnc3[nH]c(-c4ccc(C5CCN(CC6CCN(c7ccc(N8CCC(=O)NC8=O)cc7)CC6)C5)cc4)cc23)ccc1[C@@H](C)NC(=O)c1nc(C(C)(C)C)no1 (stereo partly drawn) [Example 158, 3-(tert-butyl)-N-((1R)-1-(4-(6-(4-(1-((1-(4-(2,4-dioxotetrahydropyrimidin-1(2H)-yl)phenyl)piperidin-4-yl)methyl)pyrrolidin-3-yl)phenyl)-7H-pyrrolo[2,3-d]pyrimidin-4-yl)-2-methylphenyl)ethyl)-1,2,4-oxadiazole-5-carboxamide] | 4040 | 1.12
9 | Cc1cc(-c2ncnc3[nH]c(-c4ccc(C5=CCN(CC6CCN(c7ccc(N8CCC(=O)NC8=O)cc7)CC6)C5)nc4)cc23)ccc1[C@@H](C)NC(=O)c1nc(C(C)(C)C)no1 [Example 159, (R)-3-(tert-butyl)-N-(1-(4-(6-(6-(1-((1-(4-(2,4-dioxotetrahydropyrimidin-1(2H)-yl)phenyl)piperidin-4-yl)methyl)-2,5-dihydro-1H-pyrrol-3-yl)pyridin-3-yl)-7H-pyrrolo[2,3-d]pyrimidin-4-yl)-2-methylphenyl)ethyl)-1,2,4-oxadiazole-5-carboxamide] | > 10000 | 0.93
10 | Cc1cc(-c2ncnc3[nH]c(-c4cnc(N5CCN(CC6CCN(c7ccc(N8CCC(=O)NC8=O)cc7)CC6)CC5)nc4)cc23)ccc1[C@@H](C)NC(=O)c1nc(C(C)(C)C)no1 [Example 160, (R)-3-(tert-butyl)-N-(1-(4-(6-(2-(4-((1-(4-(2,4-dioxotetrahydropyrimidin-1(2H)-yl)phenyl)piperidin-4-yl)methyl)piperazin-1-yl)pyrimidin-5-yl)-7H-pyrrolo[2,3-d]pyrimidin-4-yl)-2-methylphenyl)ethyl)-1,2,4-oxadiazole-5-carboxamide] | > 10000 | 1.25
11 | Cc1cc(-c2ncnc3[nH]c(-c4c(C)nn(C5CCN(C(=O)CNCC6CCN(c7ccc(N8CCC(=O)NC8=O)cc7)CC6)CC5)c4C)cc23)ccc1[C@@H](C)NC(=O)c1nc(C(C)(C)C)no1 [Example 161, (R)-3-(tert-butyl)-N-(1-(4-(6-(1-(1-(((1-(4-(2,4-dioxotetrahydropyrimidin-1(2H)-yl)phenyl)piperidin-4-yl)methyl)glycyl)piperidin-4-yl)-3,5-dimethyl-1H-pyrazol-4-yl)-7H-pyrrolo[2,3-d]pyrimidin-4-yl)-2-methylphenyl)ethyl)-1,2,4-oxadiazole-5-carboxamide] | 3550 | 0.92
12 | Cc1cc(-c2ncnc3[nH]c(-c4ccc(C5CCN(CC6CCN(c7ccc(N8CCC(=O)NC8=O)cc7)CC6)C5)nc4)cc23)ccc1[C@@H](C)NC(=O)c1nc(C(C)(C)C)no1 (stereo partly drawn) [Example 162, 3-(tert-butyl)-N-((1R)-1-(4-(6-(6-(1-((1-(4-(2,4-dioxotetrahydropyrimidin-1(2H)-yl)phenyl)piperidin-4-yl)methyl)pyrrolidin-3-yl)pyridin-3-yl)-7H-pyrrolo[2,3-d]pyrimidin-4-yl)-2-methylphenyl)ethyl)-1,2,4-oxadiazole-5-carboxamide] | > 10000 | 1.6
